In patent US9896423B2, “Deuterium substituted 1-[2-(2,4-dimethyl-phenylsulfanyl)-phenyl]piperazine compound or derivatives thereof, and pharmaceutical composition and use thereof” (Jiangsu Jibeier Pharmaceutical Co. Ltd., priority 2014, dated 2018):
Several values for one entry are separate records, joined by “and”; a condition that tells them apart may be missing. Equal values may be shown once. Where a name gives a salt, the structure may show the parent alone. Read-outs that look alike come from different tables or passages of the source.

Assays:
Male ICR mice = assay: Mice tail suspension test; type: in vivo; details: for effect on length of time that the tail-suspended mice stopped moving vs blank control: two successive weeks; for Duration without Move within 6 min: mice tail suspension, gavage 14 days, n = 10, x ± s
Source text: The following method is used for testing the antidepression effect of the compound of the present application. ICR mice or SD rats, gavaged for two successive weeks, were subjected to mice swimming test, mice tail suspension test and rats swimming test. See below for details of the tests and results.
The animals, medicaments, calculation of dosages to the mice, preparation of drug solution and apparatus are the same as those in the mice swimming test.
The medicaments were correspondingly administered by gavage, once a day, to the animals in the groups for 14 successive days, with the amount of 0.2 ml per 10 g of body weight. The mice were subjected to tail suspension one hour later after the last oral administration. The suspension continued for 6 min.
The data was given as “average±standard deviation” (x±s). One-way analysis of variance (ANOVA) was used for data difference statistics. Differences among the groups were determined by P<0.05.

[1] = Pharmacokinetic test in rats, intravenous injection; type: in vivo, SD rats; details: for Concentrations in Plasma of Rats after Intravenous Injection / concentration at 0.05 h / concentration at 0.133 h / concentration at 4 h / concentration at 6 h / concentration at 9 h / concentration at 12 h / concentration at 24 h / concentration at 0.25 h / concentration at 0.5 h / concentration at 1 h / concentration at 2 h / concentration at 3 h: 2 mg/kg iv; for concentration at 0.05 h / concentration at 0.133 h / concentration at 4 h / concentration at 6 h / concentration at 9 h / concentration at 12 h / concentration at 24 h / concentration at 0.25 h / concentration at 0.5 h / concentration at 1 h / concentration at 2 h / concentration at 3 h: intravenous; for concentration at 0.25 h / concentration at 0.5 h / concentration at 1 h / concentration at 2 h / concentration at 3 h: Sprague-Dawley
Description: The preferred compound of the present disclosure was assessed in rats for its pharmacokinetic profile.
SD rats, male and female, weighing 150 to 250 g
Mobile phase: 10 mM ammonium formate aqueous solution:methanol=15:85
The ionization source was electrospray ionization source. The detection mode was positive mode. Multiple reaction monitoring (MRM) was used as the scanning mode. The ion reaction for the quantitative analysis was the following: m/z was 305.2\150.0 for XX, and 256.1\167.1 for diphenhydramine (the internal standard).
Four male SD rats were taken. The dosage was calculated as 5 mL/kg body weight and 2 mg/kg. XX or YY was dissolved in DMSO (3% of a total volume) and castor oil (3% of the total volume) was added to the solution, followed by agitating with a vortex mixer. Subsequently, saline was added to the mixture to the total volume to afford the intravenous injection for the rats. The injections were intravenously administered to four male SD rats. Blood from the rats' orbits was collected 3 min, 8 min, 15 min, 30 min, 1 hr, 2 hr, 3 hr, 4 hr, 6 hr, 9 hr, 12 hr and 24 hr later after the injection, respectively.
After the blood collection, the tubes were immediately gently turned upside down at least five times to ensure sufficient mixing, and placed on ice. Heparin was added for anticoagulation. The samples were centrifuged at 8000 rpm for 5 min to separate serum from erythrocyte. The serum was transferred with a pipettor to 2 mL polypropylene (PP) tubes, which were marked with the name of the compound and the time points, and stored in a refrigerator at −40° C. before LC-MS analysis. Samples with high concentrations were diluted with rat blank plasma.
2.5 μL of Meth-H2O and 5 μL of the internal standard solution (20 ng/mL, IS) were added to 50 μL of the plasma. Subsequently, 150 μL of methanol was added to the mixture to precipitate protein and the samples were then centrifuged at 13000 rpm for 5 min. The upper organic phase was taken out, filtrated with a 0.22 μM microporous membrane, and 2 μL of the sample was injected for the LC-MS analysis.

[2] = rats, iv 2 mg/kg, individual rats, 2 mg/kg

[2H]C([2H])([2H])c1ccc(Sc2ccccc2N2CCNCC2)c(C([2H])([2H])[2H])c1 [XX, 1-{2-[2,4-bis(trideuteriomethyl)phenylsulfanyl]phenyl}piperazine hydrobromic acid salt]
effect on length of time that the tail-suspended mice stopped moving vs blank control (Male ICR mice; 1.5 mg/kg gavage): showed a tendency to shorten | effect on length of time that the tail-suspended mice stopped moving vs blank control (Male ICR mice; 3 mg/kg gavage): markedly shortened | Duration without Move within 6 min (Male ICR mice; 1.5 mg/kg): 212.6 ± 54.9 s | Duration without Move within 6 min (Male ICR mice; 3 mg/kg): 152.9 ± 35.4 s | Concentrations in Plasma of Rats after Intravenous Injection ([1]; 0.05 h after administration, individual rats): 123.2 ng/mL and 127.2 ng/mL and 121.4 ng/mL | Concentrations in Plasma of Rats after Intravenous Injection ([1]; 0.133 h, individual rats): 89.0 ng/mL and 85.9 ng/mL and 86.8 ng/mL | Concentrations in Plasma of Rats after Intravenous Injection ([1]; 0.25 h, individual rats): 78.8 ng/mL and 77.3 ng/mL and 77.1 ng/mL | Concentrations in Plasma of Rats after Intravenous Injection ([1]; 0.5 h, individual rats): 76.9 ng/mL and 71.3 ng/mL and 75.8 ng/mL | Concentrations in Plasma of Rats after Intravenous Injection ([1]; 1 h, individual rats): 73.3 ng/mL and 68.6 ng/mL and 65.6 ng/mL | Concentrations in Plasma of Rats after Intravenous Injection ([1]; 2 h, individual rats): 69.5 ng/mL and 68.1 ng/mL and 54.4 ng/mL | Concentrations in Plasma of Rats after Intravenous Injection ([1]; 3 h, individual rats): 53.4 ng/mL and 49.8 ng/mL and 38.2 ng/mL | Concentrations in Plasma of Rats after Intravenous Injection ([1]; 4 h, individual rats): 38.5 ng/mL and 27.6 ng/mL and 25.1 ng/mL | Concentrations in Plasma of Rats after Intravenous Injection ([1]; 6 h, individual rats): 28.4 ng/mL and 25.8 ng/mL and 24.5 ng/mL | Concentrations in Plasma of Rats after Intravenous Injection ([1]; 9 h, individual rats): 16.1 ng/mL and 18.6 ng/mL and 14.1 ng/mL | Concentrations in Plasma of Rats after Intravenous Injection ([1]; 12 h, individual rats): 7.86 ng/mL and 7.50 ng/mL and 7.18 ng/mL | Concentrations in Plasma of Rats after Intravenous Injection ([1]; 24 h, individual rats): 2.57 ng/mL and 2.89 ng/mL and 3.68 ng/mL | concentration at 0.05 h ([1]; male, SD, rat, plasma, 2 mg/kg, 0.05 h, mean, read-out: Concentrations in Plasma of Rats after Intravenous Injection, Mean ± SD): 126 ± 5.68 ng/mL | concentration at 0.05 h ([1]; male, SD, rat, plasma, 2 mg/kg, 0.05 h after administration, individual rats, read-out: Concentrations in Plasma of Rats after Intravenous Injection): 134 ng/mL | concentration at 0.133 h ([1]; male, SD, rat, plasma, 2 mg/kg, 0.133 h, individual rats, read-out: Concentrations in Plasma of Rats after Intravenous Injection): 86.5 ng/mL | concentration at 0.133 h ([1]; male, SD, rat, plasma, 2 mg/kg, 0.133 h, mean, read-out: Concentrations in Plasma of Rats after Intravenous Injection, Mean ± SD): 87.1 ± 1.35 ng/mL | concentration at 4 h ([1]; male, SD, rat, plasma, 2 mg/kg, 4 h, individual rats, read-out: Concentrations in Plasma of Rats after Intravenous Injection): 27.2 ng/mL | concentration at 4 h ([1]; male, SD, rat, plasma, 2 mg/kg, 4 h, mean, read-out: Concentrations in Plasma of Rats after Intravenous Injection, Mean ± SD): 29.6 ± 6.03 ng/mL | concentration at 6 h ([1]; male, SD, rat, plasma, 2 mg/kg, 6 h, individual rats, read-out: Concentrations in Plasma of Rats after Intravenous Injection): 25.8 ng/mL | concentration at 6 h ([1]; male, SD, rat, plasma, 2 mg/kg, 6 h, mean, read-out: Concentrations in Plasma of Rats after Intravenous Injection, Mean ± SD): 26.1 ± 1.64 ng/mL | concentration at 9 h ([1]; male, SD, rat, plasma, 2 mg/kg, 9 h, individual rats, read-out: Concentrations in Plasma of Rats after Intravenous Injection): 14.9 ng/mL | concentration at 9 h ([1]; male, SD, rat, plasma, 2 mg/kg, 9 h, mean, read-out: Concentrations in Plasma of Rats after Intravenous Injection, Mean ± SD): 15.9 ± 1.96 ng/mL | concentration at 12 h ([1]; male, SD, rat, plasma, 2 mg/kg, 12 h, individual rats, read-out: Concentrations in Plasma of Rats after Intravenous Injection): 8.44 ng/mL | concentration at 12 h ([1]; male, SD, rat, plasma, 2 mg/kg, 12 h, mean, read-out: Concentrations in Plasma of Rats after Intravenous Injection, Mean ± SD): 7.75 ± 0.54 ng/mL | concentration at 24 h ([1]; male, SD, rat, plasma, 2 mg/kg, 24 h, individual rats, read-out: Concentrations in Plasma of Rats after Intravenous Injection): 3.38 ng/mL | concentration at 24 h ([1]; male, SD, rat, plasma, 2 mg/kg, 24 h, mean, read-out: Concentrations in Plasma of Rats after Intravenous Injection, Mean ± SD): 3.13 ± 0.5 ng/mL | AUC(0-inf) ([1]; male, SD, rat, plasma, iv, 2 mg/kg, rats, iv 2 mg/kg, XX n = 4, YY n = 3, read-out: AUC0-∞, Mean ± SD): 482 ± 23.6 ng·h/mL | Cmax ([1]; male, SD, rat, plasma, iv, 2 mg/kg, rats, iv 2 mg/kg, XX n = 4, YY n = 3, read-out: Cmax, Mean ± SD): 126 ± 5.68 ng/mL | MRT inf ([1]; male, SD, rat, plasma, iv, 2 mg/kg, rats, iv 2 mg/kg, XX n = 4, YY n = 3, read-out: MRT0-∞, Mean ± SD): 6.87 ± 0.84 h | Vd ([1]; male, SD, rat, plasma, iv, 2 mg/kg, rats, iv 2 mg/kg, XX n = 4, YY n = 3, read-out: Vz, Mean ± SD): 32.9 ± 9.76 L/kg | half-life ([1]; male, SD, rat, plasma, iv, 2 mg/kg, rats, iv 2 mg/kg, XX n = 4, YY n = 3, read-out: t1/2, Mean ± SD (converted)): 5.47 ± 1.49 h | AUC(0-t) ([1]; male, SD, rat, plasma, iv, 2 mg/kg, rats, iv 2 mg/kg, individual rats 1-4 (Table 9), read-out: AUC0-1): 462 ng·h/mL | AUC(0-inf) ([1]; male, SD, rat, plasma, iv, 2 mg/kg, rats, iv 2 mg/kg, individual rats, read-out: AUC0-∞): 467 ng·h/mL | Cmax ([1]; male, SD, rat, plasma, iv, 2 mg/kg, rats, iv 2 mg/kg, individual rats, read-out: Cmax): 134 ng/mL | MRT inf ([1]; male, SD, rat, plasma, iv, 2 mg/kg, rats, iv 2 mg/kg, individual rats, read-out: MRT0-∞): 6.59 h | Vd ([1]; male, SD, rat, plasma, iv, 2 mg/kg, rats, iv 2 mg/kg, individual rats, read-out: Vz): 23 L/kg | half-life ([1]; male, SD, rat, plasma, iv, 2 mg/kg, rats, iv 2 mg/kg, individual rats, read-out: t1/2 (converted)): 3.72 h | AUC(0-t) ([1]; male, SD, rat, plasma, iv, 2 mg/kg, rats, iv 2 mg/kg, n = 4 (Table 9), read-out: AUC0-1, Mean ± SD): 461 ± 29.5 ng·h/mL | concentration at 0.25 h ([1]; male, rat, plasma, 2 mg/kg, 0.25 h, individual rats, read-out: Concentrations in Plasma of Rats after Intravenous Injection): 78.1 ng/mL | concentration at 0.25 h ([1]; male, rat, plasma, 2 mg/kg, 0.25 h, mean, read-out: Concentrations in Plasma of Rats after Intravenous Injection, Mean ± SD): 77.8 ± 0.78 ng/mL | concentration at 0.5 h ([1]; male, rat, plasma, 2 mg/kg, 0.5 h, individual rats, read-out: Concentrations in Plasma of Rats after Intravenous Injection): 76.6 ng/mL | concentration at 0.5 h ([1]; male, rat, plasma, 2 mg/kg, 0.5 h, mean, read-out: Concentrations in Plasma of Rats after Intravenous Injection, Mean ± SD): 75.2 ± 2.61 ng/mL | concentration at 1 h ([1]; male, rat, plasma, 2 mg/kg, 1 h, individual rats, read-out: Concentrations in Plasma of Rats after Intravenous Injection): 72.2 ng/mL | concentration at 1 h ([1]; male, rat, plasma, 2 mg/kg, 1 h, mean, read-out: Concentrations in Plasma of Rats after Intravenous Injection, Mean ± SD): 69.9 ± 3.51 ng/mL | concentration at 2 h ([1]; male, rat, plasma, 2 mg/kg, 2 h, individual rats, read-out: Concentrations in Plasma of Rats after Intravenous Injection): 60.7 ng/mL | concentration at 2 h ([1]; male, rat, plasma, 2 mg/kg, 2 h, mean, read-out: Concentrations in Plasma of Rats after Intravenous Injection, Mean ± SD): 63.2 ± 7.01 ng/mL | concentration at 3 h ([1]; male, rat, plasma, 2 mg/kg, 3 h, individual rats, read-out: Concentrations in Plasma of Rats after Intravenous Injection): 49.6 ng/mL | concentration at 3 h ([1]; male, rat, plasma, 2 mg/kg, 3 h, mean, read-out: Concentrations in Plasma of Rats after Intravenous Injection, Mean ± SD): 47.8 ± 6.6 ng/mL | CL, Mean ± SD ([1]; rats, iv 2 mg/kg, XX n = 4, YY n = 3): 4.16 ± 0.20 L/h/k | AUC0-1 ([1]; rats, iv 2 mg/kg, individual rats 1-4 (Table 9), 2 mg/kg): 492.9 ng·h/mL and 466.0 ng·h/mL and 421.5 ng·h/mL | AUC0-∞ [1, 2]: 512.0 ng·h/mL and 489.7 ng·h/mL and 459.8 ng·h/mL | CL [1, 2]: 42.8 L/h/k and 3.91 L/h/k and 4.09 L/h/k and 4.35 L/h/k | Cmax [1, 2]: 123.2 ng/mL and 127.2 ng/mL and 121.4 ng/mL | MRT0-∞ [1, 2]: 6.14 h and 6.67 h and 8.08 h | Vz [1, 2]: 29.0 L/kg and 33.4 L/kg and 46.0 L/kg | t1/2 [1, 2]: 5.15 h and 5.66 h and 7.33 h
